Test results published in patent US20200215099A1, “NON-ANTICOAGULANT SULFATED OR SULFONATED POLYSACCHARIDES” (Baxalta Incorporated, priority 2012, published 2020).
Converted amounts (≈) assume the structure as drawn. Like-named read-outs stand apart in the source and are kept apart here. One block for each compound: values may come before it.

Key:
FVIII-inhibited plasma = experiment: Thrombin generation assay (CAT) in FVIII-inhibited plasma; type: biochemical, human; conditions: for EC50: half maximal thrombin peak
Procedure: The procoagulant activity of the sulfated polysaccharides was assessed by the Thrombin Generation Assay (TGA). The influence of each sulfated polysaccharide on thrombin generation was measured in duplicate via CAT in a Fluoroskan Ascent® reader (Thermo Labsystems, Helsinki, Finland; filters 390 nm excitation and 460 nm emission) following the slow cleavage of the fluorogenic substrate Z-Gly-GIy-Arg-AMC (Hemker H C. Pathophysiol Haemost Thromb (2003) 33(4):15). To each well of a 96 well microplate (Immulon 2HB, clear U-bottom; Thermo Electron) 80 μL of pre-warmed (37° C.) goat anti FVIII antibody treated human normal plasma pool was added. For triggering thrombin generation by tissue factor, 104 of PPP reagent containing a certain amount of recombinant human tissue factor (rTF) and phospholipid vesicles composed of phosphatidylserine, phosphatidylcholine and phosphatidylethanolamine (final concentration of 4 μM) (Thrombinoscope BV, Maastricht, The Netherlands) was added. For studying the procoagulant activity of sulfated polymers a final TF concentration of 1 pM was used to provide FVIII and TFPI sensitivity of the test system. Just prior to putting the plate into the pre-warmed (37° C.) reader, 10 µL of test or reference sample or calibrator compound was added. Thrombin generation was started by dispensing 204 of FluCa reagent (Thrombinoscope BV, Maastricht, The Netherlands) containing fluorogenic substrate and Hepes buffered CaCl2 (100 mM) into each well and fluorescence intensity was recorded at 37° C.
The parameters of the resulting thrombin generation curves were calculated using the Thrombinoscope™ software (Thrombinoscope BV, Maastricht, The Netherlands) and thrombin calibrator to correct for inner filter and substrate consumption effects (Hemker H C, Pathophysiol Haemost Thromb (2003) 33(4):15). With the thrombin calibrator as a reference, the molar concentration of thrombin in the test wells was calculated by the software. The thrombin amounts at the peak and peak times of each thrombin generation curve (peak thrombin, nM) were plotted against sulfated polysaccharide concentrations resulting in the procoagulant profile of these compounds. The thrombin generation assay results are illustrated in the figures appended hereto. From these plots half maximal effective concentrations (EC50) values are determined using a sigmoidal curve fit. The EC50 represents the concentration at which the half maximal thrombin peak is reached.

contact pathway = experiment: CAT in normal plasma with and without CTI; type: biochemical
full-length TFPI = biological target: T1, full-length TFPI (Homo sapiens, UniProt P10646); experiment: Dilute prothrombin time assay with added TFPI (TFPI-dPT); type: biochemical; conditions: for reversal of the effect of rec. FL-TFPI (in words): normal human plasma; for EC50 TFPI-dPT: normal human plasma with rec. FL-TFPI
T1 construct: 0.5 μg/mL full-length TFPI (aa 1-276, constitutively produced by SKHep1); made in house; host or cells: SKHep1
T1 sequence (P10646 29-304): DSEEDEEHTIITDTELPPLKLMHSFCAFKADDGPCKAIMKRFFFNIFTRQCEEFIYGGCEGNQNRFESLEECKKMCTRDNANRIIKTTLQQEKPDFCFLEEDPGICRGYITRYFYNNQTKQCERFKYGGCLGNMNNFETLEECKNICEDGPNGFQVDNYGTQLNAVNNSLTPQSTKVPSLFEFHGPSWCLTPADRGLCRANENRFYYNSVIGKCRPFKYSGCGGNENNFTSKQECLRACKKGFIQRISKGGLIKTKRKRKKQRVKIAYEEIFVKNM
Procedure: A dilute prothrombin time assay with added TFPI (TFPI-dPT) was used to evaluate the TFPI-inhibiting effect of the different NASPs. Pooled normal human plasma (George King Biomedical, Overland Park, Kans.) was pre-incubated with 0.5 μg/mL full-length TFPI (aa 1-276, constitutively produced by SKHep1) and the respective NASP (0-5 μg/mL) for 15 min at RT. TF reagent TriniClot PT Excel S (Trinity Biotech, Wicklow, Ireland), diluted in Hepes-buffered saline 1:200 with 0.5% BSA was added to the plasma samples on an ACL Pro Elite hemostasis analyzer (Instrumentation Laboratory, Bedford, Mass.). Clotting was initiated with 25 mM CaCl2). The volume ratio of plasma:TF:CaCl2 was 1:1:1.
For data analysis, TFPI-dPT is plotted against the log concentration. Half maximal effective concentrations (EC50) values are determined using a sigmoidal curve fit.

normal human plasma = experiment: Activated partial thromboplastin time assay (aPTT); type: biochemical; conditions: for Ratio aPTT/CAT: 50% increase clotting time / CAT EC50; for anticoagulant activity (in words): aPTT compared with procoagulant CAT concentration; for 50% Increase Clotting Time: concentration where clotting time is 50% increased over normal plasma control
Procedure: The aPTT assay was performed to study anticoagulant activities of NASP. In brief, 50 μL of thawed normal human plasma pool (George King Biomedical, Overland Park, Kans.) was mixed with 5 μL of NASP sample (0-60 μg/mL final plasma concentration). NASPs were diluted in imidazole buffer (3.4 g/L imidazole; 5.85 g/L NaCl, pH 7.4) containing 1% albumin (Baxter, Austria). After addition of 50 μL aPTT reagent (STA APTT, Roche) the samples were incubated for 4 min at 37° C. Clotting was initiated by 50 μL of 25 mM CaCl2 solution (Baxter, Austria) and recorded for up to 5 min. All pipetting steps and clotting time measurements were carried out with an ACL Pro Elite (Instrumentation Laboratory, Bedford, Mass.) instrument. Samples were run in duplicate.
For data analysis, clotting time is plotted against the NASP concentration. Concentrations where the clotting time is 50% increased over the normal plasma control are determined using a linear curve fit.

[1] = test system: FVIII-inhibited human whole blood; experiment: Rotation thromboelastometry (ROTEM); conditions: ROTEM, 0.044 pM TF
Procedure: NASPs (0.4-11 μg/mL) were studied in fresh citrated human whole blood by rotation thromboelastometry (ROTEM), an assay that allows continuous visco-elastic assessment of whole blood clot formation and firmness. Blood was incubated with anti-human FVIII plasma raised in goat (Baxter Bioscience, Austria) at 50 BU/mL to simulate hemophilic conditions. Clotting was triggered with 0.044 pM tissue factor (TF) (PRP reagent, Thrombinoscope BV) in the presence of 40 μg/mL CTI (Haematologic Technologies Inc., Essex Junction, Vt., USA). Then 300 μL of the pre-warmed (37° C.) FVIII-inhibited blood was recalcified with 20 μL of a 0.2 M CaCl2 solution. Clot formation was monitored using a ROTEM instrument (Pentapharm Munich, Germany) at 37° C. The final assay concentration of rTF was 44 fM. The ROTEM recording was started immediately and measured for at least 120 min. Each blood sample was analyzed in two independent measurements.
The thromboelastographic parameters of clotting time (CT), clot formation time (CFT) and maximum clot firmness (MCF) were recorded in accordance with the manufacturer's instructions. The first derivative of the thromboelastogram data is plotted to obtain a graph of velocity (mm/s) against time (s). From this graph, the maximum velocity (maxV) and the time at which the maximum velocity is reached (maxV-t) are also determined.

Compound: sulfated xylan [sulfated xylan (14.7% S, 22 kD)]
- procoagulant activity (in words) (FVIII-inhibited plasma): procoagulant at low concentrations
- procoagulant at (concentration) (FVIII-inhibited plasma; 37° C., 1 pM hTF, 4 μM PL): about 0.01 μg/mL
- EC50 (FVIII-inhibited plasma; 1 pM hTF, 4 μM PL): 0.1 mg/L
- procoagulant activity (in words) (FVIII-inhibited plasma; listed as Sulfated xylan): good procoagulant activity in CAT assays at very low concentrations

Compound: Cellotetraose
- EC50 (FVIII-inhibited plasma; 1 pM hTF, 4 μM PL): 4.8 mg/L

Compound: sulfated β-cyclodextrin [β-Cyclodextrin (Sigma)]
- activation of the contact pathway (in words) (contact pathway): No activation of the contact pathway
- concentration activating the contact pathway (contact pathway; normal plasma, 1 pM hTF, 4 μM PL, ±41 μg/mL CTI): > 33 µg/mL
- reversal of the effect of rec. FL-TFPI (in words) (full-length TFPI): reverses the effect of rec. FL-TFPI in plasma
- EC50 TFPI-dPT (full-length TFPI): 0.08 mg/L
- Ratio aPTT/CAT (normal human plasma): 5.1
- anticoagulant activity (in words) (normal human plasma): become anticoagulant within their procoagulant window
- 50% Increase Clotting Time (normal human plasma): 3.6 µg/mL
- EC50 (FVIII-inhibited plasma; 1 pM hTF, 4 μM PL): 1.8 mg/L
- EC50 (FVIII-inhibited plasma; 1 pM hTF, 4 μM PL, listed as sulfated β-cyclodextrin): 0.7 mg/L
- EC50 (FVIII-inhibited plasma; 1 pM hTF, 4 μM PL, listed as β-cyclodextrin): about 2 μg/mL
- procoagulant activity (in words) (FVIII-inhibited plasma; listed as sulfated β-cyclodextrin): good procoagulant activity
- procoagulant activity (in words) (FVIII-inhibited plasma; listed as β-cyclodextrin): substantial procoagulant activity
- restoration of coagulation (in words) [1]: restore coagulation parameters of FVIII-inhibited whole blood
- restoration of coagulation (in words) ([1]; listed as sulfated β-cyclodextrin (18.9% S)): restores coagulation to normal in FVIII-inhibited blood

Compound: Cellopentaose
- procoagulant activity (in words) (FVIII-inhibited plasma): substantial procoagulant activity
- EC50 (FVIII-inhibited plasma; 1 pM hTF, 4 μM PL): 1.9 mg/L

Compound: 6-carboxyicodextrin [reference compound]
- procoagulant activity (in words) (FVIII-inhibited plasma): not procoagulant

Compound: Cellotriose
- EC50 (FVIII-inhibited plasma; 1 pM hTF, 4 μM PL): 30.9 mg/L

Compound: icodextrin [unsulfated icodextrin, reference compound]
- procoagulant activity (in words) (FVIII-inhibited plasma): not procoagulant

Compound: stachyose
- procoagulant activity (in words) (FVIII-inhibited plasma): substantial procoagulant activity
- EC50 (FVIII-inhibited plasma; 1 pM hTF, 4 μM PL): 2.3 mg/L

Compound: α-cyclodextrin
- procoagulant activity (in words) (FVIII-inhibited plasma): substantial procoagulant activity

Compound: sulfated 6-carboxy-icodextrin [6-carboxy-Icodextrin (unfractionated, batch 2)]
- Ratio aPTT/CAT (normal human plasma): 57.0
- 50% Increase Clotting Time (normal human plasma): 4.0 µg/mL
- EC50 (FVIII-inhibited plasma; 1 pM hTF, 4 μM PL, listed as sulfated 6-carboxyicodextrin (35 kDa, 10.1% S)): 0.07 mg/L
- procoagulant activity (in words) (FVIII-inhibited plasma; listed as sulfated 6-carboxyicodextrin (35 kDa, 10.1% S)): procoagulant at very low concentrations
- restoration of coagulation (in words) ([1]; listed as sulfated 6-carboxy-icodextrin (35 kDa; 10.1% S)): restores coagulation in human FVIII-inhibited blood

Compound: Maltotriose
- EC50 (FVIII-inhibited plasma; 1 pM hTF, 4 μM PL): 20.6 mg/L

Compound: xylohexaose
- EC50 (FVIII-inhibited plasma; 1 pM hTF, 4 μM PL): 4.8 mg/L

The next lines start with results.

- EC50 (FVIII-inhibited plasma; 1 pM hTF, 4 μM PL): 5.0 mg/L
Compound: Maltotetraose
- procoagulant activity (in words) (FVIII-inhibited plasma): substantial procoagulant activity

- EC50 (FVIII-inhibited plasma; 1 pM hTF, 4 μM PL): 0.3 mg/L
Compound: Fucoidan [Fucoidan (Control), reference compound]
- Ratio aPTT/CAT (normal human plasma): 23.3
- 50% Increase Clotting Time (normal human plasma): 7.0 µg/mL

- EC50 (FVIII-inhibited plasma; 1 pM hTF, 4 μM PL): 7.4 mg/L (≈ 14.7 µM)
Compound: OC[C@H]1O[C@H](OC[C@H]2O[C@H](O[C@]3(CO)O[C@H](CO)[C@@H](O)[C@@H]3O)[C@H](O)[C@@H](O)[C@@H]2O)[C@H](O)[C@@H](O)[C@H]1O [raffinose]

- EC50 TFPI-dPT (full-length TFPI): 0.26 mg/L
- EC50 (FVIII-inhibited plasma; 1 pM hTF, 4 μM PL, listed as sulfated 6-carboxyicodextrin (21.6 kDa, 10.6% S)): 0.04 mg/L
Compound: sulfated 6-carboxy-icodextrin [6-carboxy-Icodextrin (unfractionated, batch 1)]
- reversal of the effect of rec. FL-TFPI (in words) (full-length TFPI; listed as sulfated 6-carboxy-icodextrin (21.6 kDa, 10.6% S)): reverses the effect of rec. FL-TFPI in plasma
- Ratio aPTT/CAT (normal human plasma): 80.0
- anticoagulant activity (in words) (normal human plasma): non-anticoagulant at its optimal procoagulant concentration
- 50% Increase Clotting Time (normal human plasma): 3.2 µg/mL
- procoagulant activity (in words) (FVIII-inhibited plasma; listed as sulfated 6-carboxyicodextrin (21.6 kDa, 10.6% S)): procoagulant at very low concentrations

- EC50 (FVIII-inhibited plasma; 1 pM hTF, 4 μM PL): about 2 μg/mL
- EC50 (FVIII-inhibited plasma; 1 pM hTF, 4 μM PL, listed as maltopentose): 2.1 mg/L
Compound: Maltopentaose
- procoagulant activity (in words) (FVIII-inhibited plasma): substantial procoagulant activity

- EC50 (FVIII-inhibited plasma; 1 pM hTF, 4 μM PL): 13.5 mg/L (≈ 26.8 µM)
Compound: OC[C@H]1O[C@@](CO)(O[C@H]2O[C@H](CO)[C@@H](O)[C@H](O)[C@H]2O)[C@@H](O[C@H]2O[C@H](CO)[C@@H](O)[C@H](O)[C@H]2O)[C@@H]1O [melezitose]
